Source: patent EP0179667B1, “N6-substituted adenosines” (priority 1984, dated 1986)

Columns and labels:
adenosine A2 receptor = target: T1, adenosine A2 receptor (Rattus norvegicus, UniProt P30543); assay: Adenosine Receptor Binding - A2 Receptor Affinity (RBA2); details: [3H]NECA, rat striatal membranes; read-out: RBA-2
T1 construct: 5 mg original tissue weight of rat weight of rat striatal membranes; tissue Pel-Freez (Rogers, Arkansas); host or cells: rat striatum, membrane preparation
Method: Adenosine Receptor Binding - A2 Receptor Affinity (RBA2)
Brains from 200-500 g mixed sex Sprague-Dawley rats were purchased from Pel-Freez (Rogers, Arkansas). […] Brains were thawed and then kept on ice while the striata were dissected out. […] When needed, tissue was thawed at room temperature, disrupted in a Polytron, and kept on ice until used.
All incubations were for 60 minutes at 25°C in 12x75 mm glass tubes containing 1 ml Tris with 5 mg original tissue weight of rat weight of rat striatal membranes, 4 nM [^3H]-N-ethyl adenosine-5'-carboxamide ([^3H]NECA), 50 nM N^6-cyclopentyladenosine (to eliminate A1 receptor binding), 10 mM MgCl2, 0.1 units/ml of adenosine deaminase and 1% dimethylsulfoxide. N^6-Cyclopentyladenosine was dissolved at 10 mM in 0.02 N HCI and diluted in Tris. […] Test compounds were dissolved at 10 mM in dimethylsulfoxide on the same day as the experiment, and diluted in dimethylsulfoxide to 100x the final incubation concentration. […] [^3H]NECA was diluted to 40 nM in Tris. The membrane suspension (5 mg/0.79 ml) contained sufficient MgC12 and adenosine deaminase to give 10 mM and 0.1 units/ml, respectively, final concentration in the incubation. For test compounds with lC50 values less than 1 µM, the order of additions was test compound (10 µl), N^6-cyclopentyladenosine (100 µl), [^3H]NECA (100 µl), and membranes (0.79 ml). […] After all additions, the rack of tubes was vortexed, and the tubes were then incubated for 60 min at 25°C in a shaking water bath. The rack of tubes was vortexed an additional time halfway through the incubation.
incubations were terminated by filtration through 2.4 cm GF/B filters under reduced pressure. Each tube was filtered as follows: the contents of the tube were poured onto the filter, 4 ml of ice-cold Tris were added to the tube and the contents poured onto the filter, and the filter was washed twice with 4 ml of ice-cold Tris. The filtration was complete in about twelve seconds.
Nonspecific binding was defined as binding in the presence of 100 µM N^6-cyclopentyladenosine, and specific binding was defined as total binding minus nonspecific binding. The IC50 was calculated by weighed nonlinear least squares curve-fitting to the mass-action equation. [formula] • where Y is cpm bound • T is cpm total binding without drug • S is cpm specific binding without drug • D is the concentration of drug • and K is the IC50 of the drug Weighting factors were calculated under the assumption that the standard deviation was proportional to the predicted value of Y. Nonspecific binding was treated as a very large (infinite) concentration of drug in the computer analysis.

Swiss-Webster male mice [1] = assay: Mouse Activity and Screen Test Procedure (MAST): locomotor activity in actophotometer; type: in vivo; details: one hour prior to testing
Method: Nine unfasted Swiss-Webster male mice weighing 20-30 g equally divided into three groups for each drug dose to be tested. That is, data for each dose level was generated by three separated groups of three mice each. A minimum of three dose levels (10, 30, and 100 mg/kg) are tested for each drug. Treatments are administered intraperitoneally one hour prior to testing. All dosages are calculated as parent compound and given in volumes of 10 ml/kg. […] Control animals are injected with Methocel. […] The actophotometer consists of a cylindrical chamber whose center is occupied by another cylinder which contains the illumination for six photocells located on the perimeter of the chamber. Six light-beam interruptions equal one count. […] Data: The data obtained from the screen test are expressed as percent of mice falling off the screen. Data derived from locomotor activity of drug treated mice are compared to the activity of vehicle treated animals and are expressed as percent inhibition of spontaneous locomotion. All percentages reported for inhibition of locomotion (LI) are based upon data accumulated for one hour. […] An overall dose rating is obtained by the following criteria: LAD refers to the lowest dose at which an A rating is achieved. […] The compounds are identified in the Examples.

Swiss-Webster male mice [2] = assay: Mouse Activity and Screen Test Procedure (MAST): screen test (ST); type: in vivo; details: one hour postinjection
Description: The compounds of the invention are new chemical substances which are useful as pharmaceutical agents for the treatment of psychoses. The antipsychotic activity of representative compounds of the invention was established by the Mouse Activity and Screen Test Procedrue (MAST) described below.
Nine unfasted Swiss-Webster male mice weighing 20-30 g equally divided into three groups for each drug dose to be tested. That is, data for each dose level was generated by three separated groups of three mice each.
A minimum of three dose levels (10, 30, and 100 mg/kg) are tested for each drug. Treatments are administered intraperitoneally one hour prior to testing. All dosages are calculated as parent compound and given in volumes of 10 ml/kg. Compounds are dissolved or suspended in 0.2% Methocel. Control animals are injected with Methocel.
Testing: A two part testing procedure is started one hour postinjection. First, the screen test (ST) is performed (see Pharmac. Biochem. Behav. 6, 351-353, 1977). Briefly this test consists of placing mice on individual wire screens which are then rotated 180 degrees at the start of a 60 second observation period. The number of mice falling off the inverted screen is recorded.
Data: The data obtained from the screen test are expressed as percent of mice falling off the screen. Data derived from locomotor activity of drug treated mice are compared to the activity of vehicle treated animals and are expressed as percent inhibition of spontaneous locomotion. All percentages reported for inhibition of locomotion (LI) are based upon data accumulated for one hour. Both phases of testing are graded: A=60-100%; G=31-59%; and N=0-30%. An overall dose rating is obtained by the following criteria:
LAD refers to the lowest dose at which an A rating is achieved. […] Utilizing this procedure, an overall dose rating of A was obtained for the noted compound at the indicated dose. The compounds are identified in the Examples.

T1 sequence (P30543 whole entry): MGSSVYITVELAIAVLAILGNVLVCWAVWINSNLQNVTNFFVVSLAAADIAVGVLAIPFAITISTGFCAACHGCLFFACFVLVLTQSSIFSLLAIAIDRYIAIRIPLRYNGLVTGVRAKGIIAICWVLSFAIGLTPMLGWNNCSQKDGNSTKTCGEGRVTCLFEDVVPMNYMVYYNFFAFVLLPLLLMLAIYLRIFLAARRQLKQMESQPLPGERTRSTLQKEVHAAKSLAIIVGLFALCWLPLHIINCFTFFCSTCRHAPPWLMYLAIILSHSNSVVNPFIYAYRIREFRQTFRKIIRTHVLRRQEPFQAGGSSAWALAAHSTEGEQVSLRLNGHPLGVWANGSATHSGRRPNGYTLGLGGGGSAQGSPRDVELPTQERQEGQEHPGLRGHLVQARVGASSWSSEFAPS

IC50 (adenosine A2 receptor) [nM]	Screen test failure (Swiss-Webster male mice [2]; 1 mg/kg intraperitoneally) [%]	Screen test failure (Swiss-Webster male mice [2]; 3 mg/kg intraperitoneally) [%]	Screen test failure (Swiss-Webster male mice [2]; 10 mg/kg intraperitoneally) [%]	Screen test failure (Swiss-Webster male mice [2]; 30 mg/kg intraperitoneally) [%]	Screen test failure (Swiss-Webster male mice [2]; 0.3 mg/kg intraperitoneally) [%]	Screen test failure (Swiss-Webster male mice [2]; 0.1 mg/kg intraperitoneally) [%]	SMILES	Inhibition of mouse locomotor activity (Swiss-Webster male mice [1]; 1 mg/kg intraperitoneally) [%]	Inhibition of mouse locomotor activity (Swiss-Webster male mice [1]; 3 mg/kg intraperitoneally) [%]	Inhibition of mouse locomotor activity (Swiss-Webster male mice [1]; 10 mg/kg intraperitoneally) [%]	Inhibition of mouse locomotor activity (Swiss-Webster male mice [1]; 30 mg/kg intraperitoneally) [%]	Inhibition of mouse locomotor activity (Swiss-Webster male mice [1]; 0.3 mg/kg intraperitoneally) [%]	Inhibition of mouse locomotor activity (Swiss-Webster male mice [1]; 0.1 mg/kg intraperitoneally) [%]
57100	0	0	0	22			CC(=O)Oc1ccccc1C(=O)OC[C@H]1O[C@@H](n2cnc3c(NC4CCCc5ccccc54)ncnc32)[C@H](O)[C@@H]1O (stereo partly shown) [Example 14, N^6-(1-tetralinyl)-5'-O-(O-acetylsalicoyl)adenosine]	54	69	94	94		
4440	22	22	55	55	11		CC(=O)OC[C@H]1O[C@@H](n2cnc3c(NC4CCCc5ccccc54)ncnc32)[C@H](O)[C@@H]1O (stereo partly shown) [Example 15, N^6-(1-tetralinyl)-5'-acetyl-adenosine]	87	96	98	99	46	
260		0	0	0			OC[C@H]1O[C@@H](n2cnc3c(NC4CCCc5c(O)cccc54)ncnc32)[C@H](O)[C@@H]1O (stereo partly shown) [Example 16, N^6-[1-(5-hydroxy)-tetralinyl]-adenosine]		−13	23	89		
238		0	0	22			OC[C@H]1O[C@@H](n2cnc3c(NC4CCCc5ccc(O)cc54)ncnc32)[C@H](O)[C@@H]1O (stereo partly shown) [Example 17]		44	88	91		
366	11	11	0	0			Cc1cc(C)c2c(c1)C(Nc1ncnc3c1ncn3[C@@H]1O[C@H](CO)[C@@H](O)[C@H]1O)CCC2 (stereo partly shown) [Example 18, N^6-[1-(5,7-dimethyl)-tetralinya]-adenosine]	44	73	91	96		
65.5	0	22	11	55	11	0	OC[C@H]1O[C@@H](n2cnc3c(NCC4=CCc5ccccc54)ncnc32)[C@H](O)[C@@H]1O [Example 22, N^6-[1H-inden-3-yl]methyladenosine]	76	76	96	97	38	30
2850		0	0	22			OC[C@H]1O[C@@H](n2cnc3c(NCC4(O)CCCc5ccccc54)ncnc32)[C@H](O)[C@@H]1O (stereo partly shown) [Example 23, N^6-[1-hydroxy-1-tetralinyl]methyl adenosine]		19	16	77		
76.5	0	22	22	11	0		OC[C@H]1O[C@@H](n2cnc3c(NCC4=CCCc5ccccc54)ncnc32)[C@H](O)[C@@H]1O [Example 24, N^6-[3,4-dihydro-1-naphthalenyl]methyladenosine]	34	67	94	95	9	
987		11	22	66			OC[C@H]1O[C@@H](n2cnc3c(NCC4(O)CCc5ccccc54)ncnc32)[C@H](O)[C@@H]1O (stereo partly shown) [Example 25, N^6-[2,3-dihydro-1-hydroxy-1H-inden-1-yl]methyladenosine]		−14	89	88		
2700		0	22	22			OC[C@H]1O[C@@H](n2cnc3c(NCC4=CCCCc5ccccc54)ncnc32)[C@H](O)[C@@H]1O [Example 26, N^6-(1-benzocycloheptenyl)methyladenosine]		50	31	64		
4010		0	11	0			OC[C@H]1O[C@@H](n2cnc3c(NCC4(O)CCCCc5ccccc54)ncnc32)[C@H](O)[C@@H]1O (stereo partly shown) [Example 27, N^6-(1-hydroxy-1-benzocycloheptyl]methyladenosine]		1	33	33		

SMILES	IC50 (adenosine A2 receptor) [nM]	Screen test failure (Swiss-Webster male mice [2]; 1 mg/kg intraperitoneally) [%]	Screen test failure (Swiss-Webster male mice [2]; 3 mg/kg intraperitoneally) [%]	Screen test failure (Swiss-Webster male mice [2]; 10 mg/kg intraperitoneally) [%]	Screen test failure (Swiss-Webster male mice [2]; 30 mg/kg intraperitoneally) [%]	Screen test failure (Swiss-Webster male mice [2]; 0.3 mg/kg intraperitoneally) [%]	Screen test failure (Swiss-Webster male mice [2]; 0.1 mg/kg intraperitoneally) [%]	Inhibition of mouse locomotor activity (Swiss-Webster male mice [1]; 1 mg/kg intraperitoneally) [%]	Inhibition of mouse locomotor activity (Swiss-Webster male mice [1]; 3 mg/kg intraperitoneally) [%]	Inhibition of mouse locomotor activity (Swiss-Webster male mice [1]; 10 mg/kg intraperitoneally) [%]	Inhibition of mouse locomotor activity (Swiss-Webster male mice [1]; 30 mg/kg intraperitoneally) [%]	Inhibition of mouse locomotor activity (Swiss-Webster male mice [1]; 0.3 mg/kg intraperitoneally) [%]	Inhibition of mouse locomotor activity (Swiss-Webster male mice [1]; 0.1 mg/kg intraperitoneally) [%]
OC[C@H]1O[C@@H](n2cnc3c(NCC4CCc5ccccc54)ncnc32)[C@H](O)[C@@H]1O (stereo partly shown) [Example 21, N^6-[2,3-dihydro-1H-inden-1-yl]methyladenosine]	99	0	0	22	55	0		23	61	82	99	−19	
